# From patent US11479571B2 (priority 2016, dated 2022)
# What was measured:
# [1] = system: Vesicular stomatitis virus (VSV) particles encoding luciferase and pseudotyped with EboV GP; experiment: microbe, parasite or virus in culture; assay type: cell-based, Ebola virus; conditions: for inhibition at 10 µM: compound concentration 10 μM; for inhibition at 2 µM: compound concentration 2 μM
SMILES,inhibition at 10 µM [1],melting point,inhibition at 2 µM [1]
CCOP(=O)(Cc1cccc(COc2ccccc2CN2CCN(Cc3ccc4nc(-c5cccc(C(F)(F)F)c5)[nH]c4c3)CC2)c1)OCC [Compound E59],< 20%,,
"COC(=O)c1ccc(COc2ccccc2CN2CCN(Cc3ccc4nc(-c5cccc(C(F)(F)F)c5)[nH]c4c3)CC2)cc1 [Compound E16, N1-[[2-[3-(trifluoromethyl)phenyl]-benzimidazol-5-yl]methyl]-N4-[[2-[(4-methoxycarbonylphenyl)methoxy]phenyl]methyl]-piperazine]",91.6%,102 °C,64.1%
O=C(c1ccc2nc(C(c3ccccc3)c3ccccc3)[nH]c2c1)N1CCN(Cc2ccc(C(F)(F)F)cc2)CC1,,148 °C,
O=C(c1ccc2nc(C(c3ccccc3)c3ccccc3)[nH]c2c1)N1CCN(Cc2ccc(OC(F)(F)F)cc2)CC1,,120 °C,
"COC(=O)c1ccc(COc2ccccc2CN2CCN(Cc3ccc4nc(-c5ccc(C(F)(F)F)cc5)[nH]c4c3)CC2)cc1 [Compound E15, N1-[[2-[4-(trifluoromethyl)phenyl]-benzimidazol-5-yl]methyl]-N4-[[2-[(4-methoxycarbonylphenyl)methoxy]phenyl]methyl]-piperazine]",93.5%,,2%
O=C(c1ccc2nc(-c3ccccn3)[nH]c2c1)N1CCN(Cc2ccc(OC(F)(F)F)cc2)CC1,,190 °C,
FC(F)(F)Oc1ccc(CN2CCN(Cc3ccc4nc(-c5ccccn5)[nH]c4c3)CC2)cc1,,64 °C,
FC(F)(F)Oc1cccc(CN2CCN(Cc3ccc4nc(-c5cccnc5)[nH]c4c3)CC2)c1,,110 °C,
"COC(=O)c1ccc(COc2ccccc2CN2CCN(C(=O)c3ccc4nc(-c5ccccn5)[nH]c4c3)CC2)cc1 [Compound E20, N1-[[2-[(4-methoxycarbonylphenyl)methoxy]phenyl]methyl]-N4-[2-(2-pyridyl)-benzimidazole-5-carbonyl]-piperazine]",< 20%,96 °C,
CCOP(=O)(Cc1ccc(COc2ccccc2CN2CCN(Cc3ccc4nc(-c5cccc(C(F)(F)F)c5)[nH]c4c3)CC2)cc1)OCC [Compound E57],< 20%,,
O=C(c1ccc2nc(-c3ccccn3)[nH]c2c1)N1CCN(Cc2cccc(OC(F)(F)F)c2)CC1,,100 °C,
O=C(OCc1ccccc1)N1CCN(C(=O)c2ccc3nc(-c4ccccn4)[nH]c3c2)CC1,,165 °C,
"COC(=O)c1ccc(COc2ccccc2CN2CCN(C(=O)c3ccc4nc(C(c5ccccc5)c5ccccc5)[nH]c4c3)CC2)cc1 [Compound E18, N1-(2-benzhydryl-benzimidazole-5-carbonyl)-N4-[[2-[(4-methoxycarbonylphenyl)methoxy]phenyl]methyl]-piperazine]",< 20%,196 °C,
"COC(=O)c1ccc(COc2ccccc2CN2CCN(C(=O)c3ccc4nc(-c5cccnc5)[nH]c4c3)CC2)cc1 [Compound E19, N1-[[2-[(4-methoxycarbonylphenyl)methoxy]phenyl]methyl]-N4-[2-(3-pyridyl)-benzimidazole-5-carbonyl]-piperazine]",< 20%,,
"COC(=O)c1ccc(COc2ccccc2CN2CCN(Cc3ccc4nc(-c5ccccc5)[nH]c4c3)CC2)cc1 [Compound E11, N1-[[2-[(4-methoxycarbonylphenyl)methoxy]phenyl]methyl]-N4-[(2-phenyl-benzimidazol-5-yl)methyl]-piperazine]",95%,,
"COC(=O)c1ccc(COc2ccccc2CN2CCN(Cc3ccc4nc(-c5ccccn5)[nH]c4c3)CC2)cc1 [Compound E14, N1-[[2-[(4-methoxycarbonylphenyl)methoxy]phenyl]methyl]-N4-[[2-(2-pyridyl)-benzimidazol-5-yl]methyl]-piperazine]",80%,,

SMILES,inhibition at 10 µM [1],melting point,inhibition at 2 µM [1]
O=C(c1ccc2nc(-c3ccccc3)[nH]c2c1)N1CCN(Cc2ccc(C(F)(F)F)cc2)CC1,,220 °C,
"FC(F)(F)Oc1cccc(CN2CCN(Cc3ccc4nc(-c5ccccc5)[nH]c4c3)CC2)c1 [Compound E29, N1-[3-(trifluoromethoxy)benzyl]-N4-[(2-phenyl-benzimidazol-5-yl)methyl]-piperazine]",80%,80 °C,< 20%
O=C(COc1ccc(Cl)cc1)N1CCN(Cc2ccc3nc(C(c4ccccc4)c4ccccc4)[nH]c3c2)CC1,,194 °C,
"FC(F)(F)c1ccc(CN2CCN(Cc3ccc4nc(C(c5ccccc5)c5ccccc5)[nH]c4c3)CC2)cc1 [Compound E22, N1-[(2-benzhydryl-benzimidazol-5-yl)methyl]-N4-[4-(trifluoromethyl)benzyl]-piperazine]",80%,236 °C,< 20%
O=C(COc1ccc(Cl)cc1)N1CCN(Cc2ccc3nc(-c4ccccn4)[nH]c3c2)CC1,,138 °C,
FC(F)(F)Oc1ccc(CN2CCN(Cc3ccc4nc(-c5cccnc5)[nH]c4c3)CC2)cc1,,88 °C,
Cc1ccc(NC(=O)N2CCN(Cc3ccc4nc(-c5cccnc5)[nH]c4c3)CC2)cc1,,174 °C,
O=C(Nc1ccc(C(F)(F)F)cc1)N1CCN(Cc2ccc3nc(C(c4ccccc4)c4ccccc4)[nH]c3c2)CC1,,172 °C,
FC(F)(F)Oc1cccc(CN2CCN(Cc3ccc4nc(C(c5ccccc5)c5ccccc5)[nH]c4c3)CC2)c1,,86 °C,
FC(F)(F)c1ccc(CN2CCN(Cc3ccc4nc(-c5cccnc5)[nH]c4c3)CC2)cc1,,138 °C,
FC(F)(F)Oc1cccc(CN2CCN(Cc3ccc4nc(-c5ccccn5)[nH]c4c3)CC2)c1,,65 °C,
FC(F)(F)c1ccc(CN2CCN(Cc3ccc4nc(-c5ccccc5)[nH]c4c3)CC2)cc1,,178 °C,
"O=C(Nc1ccc(C(F)(F)F)cc1)N1CCN(Cc2ccc3nc(-c4ccccn4)[nH]c3c2)CC1 [Compound E52, N1-[[2-(2-pyridyl)-benzimidazol-5-yl]methyl]-N4-[[4-(trifluoromethyl)phenyl]carbamoyl]-piperazine]",82.9%,,64.3%
"COC(=O)c1ccc(COc2ccccc2CN2CCN(C(=O)c3ccc4nc(-c5ccccc5)[nH]c4c3)CC2)cc1 [Compound E17, N1-[[2-[(4-methoxycarbonylphenyl)methoxy]phenyl]methyl]-N4-(2-phenyl-benzimidazole-5-carbonyl)-piperazine]",< 20%,255 °C,
O=C(c1ccc2nc(C(c3ccccc3)c3ccccc3)[nH]c2c1)N1CCN(Cc2cccc(OC(F)(F)F)c2)CC1,,76 °C,
